Source: publication PMC11714206, “Massively Parallel Screening of Toll/Interleukin‐1 Receptor (TIR)‐Derived Peptides Reveals Multiple Toll‐Like Receptors (TLRs)‐Targeting Immunomodulatory Peptides” (Advanced Science, 2024)

Biological target: T1, MyD88^TIR (Homo sapiens, UniProt Q99836)
T1 construct: MyD88 (residues 148–296); 6xHis; made in house; host or cells: E. coli BL21 (DE3)
Test: T‐Surf phage library (P8 and P3) selection against MyD88^TIR, four rounds, NGS read counts
Format: binding
Conditions: for P3_MyD88 Rank (after) / P3_MyD88 Rank (before): P3 library; for P8_MyD88 Rank (after) / P8_MyD88 Rank (before): P8 library; for Population: 4th round of selection against MyD88 TIR, share of NGS reads
Procedure, shortened: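 Read counts come from NGS of phage pools enriched over four selection rounds on the plate‐coated TIR domain (5 µg mL^−1). Each round: 1 h phage binding at room temperature after 0.2% BSA blocking, Tween washes, acid elution, amplification in E. coli TG1 with M13KO7 helper.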

[1] = selection against MyD88 TIR, rank by count after grouping
[2] = selection against MyD88 TIR, rank by count before grouping
[3] = selection against MyD88, rank after grouping
[4] = selection against MyD88, rank before grouping
[5] = P8_MyD88: rank by count after grouping
[6] = P8_MyD88: rank by count before grouping
[7] = P8_MyD88 pool: P8 T-Surf phage library
[8] = P3_MyD88: rank by count after grouping
[9] = P3_MyD88: rank by count before grouping
[10] = P8_MyD88: rank by NGS read count after grouping
[11] = P8_MyD88: rank by NGS read count before grouping
[12] = selection against MyD88, rank by count after grouping
[13] = selection against MyD88, rank by count before grouping
[14] = 4R selection against MyD88, rank after grouping
[15] = 4R selection against MyD88, rank before grouping
[16] = P3_MyD88 pool: P3 T-Surf phage library

T1 sequence (Q99836 148-296): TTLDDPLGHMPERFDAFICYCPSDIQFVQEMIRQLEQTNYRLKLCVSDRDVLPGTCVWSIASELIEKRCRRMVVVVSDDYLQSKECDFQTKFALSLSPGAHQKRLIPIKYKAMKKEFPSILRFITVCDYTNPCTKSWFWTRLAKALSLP

SELREVADGSVSPLEM was tested, and the “P3_MyD88 Rank (after)” value [1] was 192 and the “P3_MyD88 Rank (before)” value [2] was 3063.
For AGDKGTDKIQTPLKNA, the “P3_MyD88 Rank (after)” value [3] was 484 and the “P3_MyD88 Rank (before)” value [4] was 1942.
YASYDDNDYYWVTHVLLRFV was tested, and the “P8_MyD88 Rank (after)” value [1] was 215 and the “P8_MyD88 Rank (before)” value [2] was 1788.
HYTDSYFALHELALLL was tested, and the “Rank (after)” value [5] was 128, the “Rank (before)” value [6] was 138 and the Population [7] was 0.0119%.
For LVAHELSNKMKSFATI, the “Rank (after)” value [8] was 386 and the “Rank (before)” value [9] was 2276.
DHHLDLPRGKAIQPDILG was tested, and the “P3_MyD88 Rank (after)” value [3] was 554 and the “P3_MyD88 Rank (before)” value [4] was 2014.
NYASSTFALNELHYILRFI was tested, and the “P8_MyD88 Rank (after)” value [3] was 496 and the “P8_MyD88 Rank (before)” value [4] was 3852.
SADYDDVGDRLIRMIE was tested, and the “Rank (after)” value [10] was 1024 and the “Rank (before)” value [11] was 3747.
In the case of NGQSSRFKDDADLVGQ, the “P3_MyD88 Rank (after)” value [12] is reported as 678 and the “P3_MyD88 Rank (before)” value [13] is reported as 3337.
KEVEGWRDALPTVASL was tested, and the “P3_MyD88 Rank (after)” value [1] was 220 and the “P3_MyD88 Rank (before)” value [2] was 3622.
For IDDDHLTYLVRLIEAL, the “Rank (after)” value [5] was 473 and the “Rank (before)” value [6] was 3638.
For IDDHHLTFLVSLLLSL, the “Rank (after)” value [10] was 975 and the “Rank (before)” value [11] was 3651.
In the case of DWVWEYLLPNVERPEG, the “Rank (after)” value [10] is reported as 880 and the “Rank (before)” value [11] is reported as 2458.
KEPENYRFALHERDFP was tested, and the “P3_MyD88 Rank (after)” value [14] was 662 and the “P3_MyD88 Rank (before)” value [15] was 3685.
In the case of SSFRERLWRLLELIKK, the “P3_MyD88 Rank (after)” value [14] is reported as 644 and the “P3_MyD88 Rank (before)” value [15] is reported as 3246.
NELLHVWSSKANSLEG was tested, and the “P3_MyD88 Rank (after)” value [14] was 648 and the “P3_MyD88 Rank (before)” value [15] was 3394.
In the case of MVGGDTFHDFLDIISM, the “P8_MyD88 Rank (after)” value [14] is reported as 655 and the “P8_MyD88 Rank (before)” value [15] is reported as 3677.
In the case of WDFASNMEQLLDRLYY, the “Rank (after)” value [5] is reported as 406 and the “Rank (before)” value [6] is reported as 1626.
In the case of YYLDPSHLRKQSGESE, the “P3_MyD88 Rank (after)” value [1] is reported as 255 and the “P3_MyD88 Rank (before)” value [2] is reported as 1460.
With HLRKEFDKRLITSFKD the “Rank (after)” value [8] was 387 and the “Rank (before)” value [9] was 2800.
In the case of SSFREGLSRLPELSKK, the “P3_MyD88 Rank (after)” value [14] is reported as 589 and the “P3_MyD88 Rank (before)” value [15] is reported as 3207.
Sequence ELDFSHFWLFEAGGDA has a Population [7] of 0.02%.
With ELDFSHFWLFEARGDA the Population [7] was 0.0224%.
NQWRKALTSAANLSGW was tested, and the “P3_MyD88 Rank (after)” value [12] was 703 and the “P3_MyD88 Rank (before)” value [13] was 3528.
With NQWRNALTAAANLSGC the Population [16] was 0.00291%.
With YLRADDSWFWEKLLQIA the “P8_MyD88 Rank (after)” value [3] was 553 and the “P8_MyD88 Rank (before)” value [4] was 2056.
In the case of EHHLDLPRGKAIKPAILG, the “Rank (after)” value [8] is reported as 152 and the “Rank (before)” value [9] is reported as 2117.
In the case of TSTWALDELWLILEQR, the Population [7] is reported as 0.0262%.
With LGYHLIVWEYFVGIED the “P8_MyD88 Rank (after)” value [12] was 744 and the “P8_MyD88 Rank (before)” value [13] was 3227.
For LGYHWIGWEYCVGIED, the “P8_MyD88 Rank (after)” value [3] was 482 and the “P8_MyD88 Rank (before)” value [4] was 3246.
For DTALTNSGFHTLRDND, the “Rank (after)” value [8] was 450 and the “Rank (before)” value [9] was 2091.
For SSFREGLWRLLEVSQK, the “P3_MyD88 Rank (after)” value [1] was 199 and the “P3_MyD88 Rank (before)” value [2] was 3151.
In the case of YAFTCHLHRYLVQRCV, the “P3_MyD88 Rank (after)” value [12] is reported as 692 and the “P3_MyD88 Rank (before)” value [13] is reported as 1481.
With NGHESEIIKEIVDTFM the “P3_MyD88 Rank (after)” value [1] was 243 and the “P3_MyD88 Rank (before)” value [2] was 1232.
YAASPWWFDELVTILG was tested, and the “Rank (after)” value [5] was 433 and the “Rank (before)” value [6] was 1725.
In the case of PGYHWLEWEYFVGIED, the “Rank (after)” value [5] is reported as 442 and the “Rank (before)” value [6] is reported as 1195.
With LGYHWIEWEDFVVIED the “Rank (after)” value [10] was 872 and the “Rank (before)” value [11] was 3293.
In the case of SSWREGLCRLLELRNK, the “P3_MyD88 Rank (after)” value [3] is reported as 501 and the “P3_MyD88 Rank (before)” value [4] is reported as 3264.
In the case of WDFCEQYGTVLGSSVL, the “P8_MyD88 Rank (after)” value [3] is reported as 555 and the “P8_MyD88 Rank (before)” value [4] is reported as 1569.
RFGGDTFLEYLVLISM was tested, and the “P8_MyD88 Rank (after)” value [12] was 765 and the “P8_MyD88 Rank (before)” value [13] was 3753.
SSFRDDLWRLLELSKK was tested, and the “P3_MyD88 Rank (after)” value [14] was 582 and the “P3_MyD88 Rank (before)” value [15] was 3135.
For FLSYRALEKRFGPLVQ, the “P3_MyD88 Rank (after)” value [3] was 536 and the “P3_MyD88 Rank (before)” value [4] was 1378.
With DWLPGRTLFENLWASV the “Rank (after)” value [5] was 152, the “Rank (before)” value [6] was 164 and the Population [7] was 0.00886%.
In the case of YAFTGQLNQYLVQRGV, the “P3_MyD88 Rank (after)” value [14] is reported as 623 and the “P3_MyD88 Rank (before)” value [15] is reported as 1538.
Work on SNFREGLWRLLELSKK yielded a Population [16] of 0.00408%.
For YAFTGHLHRIWCSVA, the “P3_MyD88 Rank (after)” value [14] was 581 and the “P3_MyD88 Rank (before)” value [15] was 1523.
In the case of AFSHWALVELLEAIEQ, the “P8_MyD88 Rank (after)” value [1] is reported as 226 and the “P8_MyD88 Rank (before)” value [2] is reported as 385.
In the case of PVAHDLSKKMKIFATI, the “Rank (after)” value [8] is reported as 474 and the “Rank (before)” value [9] is reported as 2698.
For WFWDKLKYALHRNRI, the “Rank (after)” value [8] was 406 and the “Rank (before)” value [9] was 1414.
In the case of SEIYATSPWALDVLVL, the “P3_MyD88 Rank (after)” value [3] is reported as 508 and the “P3_MyD88 Rank (before)” value [4] is reported as 2953.
